Patent publication US11192900B2, “Substituted 1,6-dihydropyridinones and 1,2-dihydroisoquinolinones as bet inhibitors” (NUVATION BIO INC., priority 2018, dated 2021)

Biological target: BRD4-2 (Homo sapiens (Human), UniProt O60885)
Experiment: Bromodomain and Extraterminal Domain (BET) Binding Assay
Details: Table 3; read-out: BRD4-2 IC50
Method: The bromodomain binding assays were performed by Reaction Biology Corp., Malvern, Pa., USA (www.reactionbiology.com). The BET binding assays were conducted in 384 well microplates in assay buffer (50 mM HEPES-HCl, pH 7.5, 100 mM NaCl, 1 mg/ml BSA, 0.05% CHAPS, and 0.5% DMSO) with compounds added as DMSO stocks at a single concentration or with 10-point dose response titrations. BET protein or assay buffer were delivered to the appropriate wells of the microplate. Test compound was then delivered by acoustic technology via a Labcyte Echo550 liquid handler. The microplate was centrifuged for 5 min and pre-incubated for 30 min at RT with gentle shaking. The ligand (histone H4 peptide (1-21) K5/8/12/16Ac-biotin) was delivered and the microplate was again centrifuged for 5 min and allowed to incubate for 30 min at RT with gentle shaking. Donor beads were then added in the absence of light and the microplate was centrifuged and gently shaken. After 5 min, acceptor beads were added in the absence of light and the microplate was centrifuged and gently shakenin the dark for 60 min. The microplate was read using a Perkin Elmer EnSpire Alpha plate reader (λEx/λEm=680/520-620 nm). Percent inhibition was calculated relative to positive and negative controls on a per plate basis. For titration experiments, IC50 values were determined by fitting the percent inhibition versus compound concentration.

Structure (SMILES)	IC50 [nM]
C=CC(=O)Nc1ccc(Oc2ccc(Cl)cc2)c(-c2cn(C)c(=O)c3ccccc23)c1 [Compound 31, N-(4-(4-chlorophenoxy)-3-(2-methyl-1-oxo-1,2-dihydroisoquinolin-4-yl)phenyl)acrylamide]	413
C=CS(=O)(=O)Nc1ccc(Oc2ccc(C)cc2)c(-c2cc(NC)c(=O)n(C)c2)c1 [Compound 4, N-(3-(1-methyl-5-(methylamino)-6-oxo-1,6-dihydropyridin-3-yl)-4-(p-tolyloxy)phenyl)ethenesulfonamide]	22
C=CC(=O)Nc1ccc(Oc2ccc(OC)cc2)c(-c2cc(NC)c(=O)n(C)c2)c1 [Compound 5, N-(4-(4-methoxyphenoxy)-3-(1-methyl-5-(methylamino)-6-oxo-1,6-dihydropyridin-3-yl)phenyl)acrylamide]	142
C=CS(=O)(=O)Nc1ccc(Oc2ccc(F)cc2)c(-c2cn(C)c(=O)c3ccccc23)c1 [Compound 11, N-(4-(4-fluorophenoxy)-3-(2-methyl-1-oxo-1,2-dihydroisoquinolin-4-yl)phenyl)ethenesulfonamide]	14
C=CS(=O)(=O)Nc1ccc(Oc2ccc(C)cc2)c(-c2cn(C)c(=O)c3ccccc23)c1 [Compound 13, N-(3-(2-methyl-1-oxo-1,2-dihydroisoquinolin-4-yl)-4-(p-tolyloxy)phenyl)ethenesulfonamide]	24
C=CS(=O)(=O)Nc1ccc(Oc2ccc(F)cc2F)c(-c2cn(C)c(=O)c3ccccc23)c1 [Compound 10, N-(4-(2,4-difluorophenoxy)-3-(2-methyl-1-oxo-1,2-dihydroisoquinolin-4-yl)phenyl)ethenesulfonamide]	56
C=CS(=O)(=O)Nc1ccc(Oc2ccc(F)cc2F)c(-c2cnc(=O)n(C)c2)c1 [Compound 19, N-(4-(2,4-difluorophenoxy)-3-(1-methyl-2-oxo-1,2-dihydropyrimidin-5-yl)phenyl)ethenesulfonamide]	1450
C=CS(=O)(=O)Nc1ccc(Oc2ccc(F)cc2)c(-c2cc(NC)c(=O)n(C)c2)c1 [Compound 7, N-(4-(4-fluorophenoxy)-3-(1-methyl-5-(methylamino)-6-oxo-1,6-dihydropyridin-3-yl)phenyl)ethenesulfonamide]	24
C=CC(=O)Nc1ccc(Oc2ccc(F)cc2F)c(-c2cn(C)c(=O)c3ccccc23)c1 [Compound 9, N-(4-(2,4-difluorophenoxy)-3-(2-methyl-1-oxo-1,2-dihydroisoquinolin-4-yl)phenyl)acrylamide]	319
C=CS(=O)(=O)Nc1ccc(Oc2ccc(OC)cc2)c(-c2cc(NC)c(=O)n(C)c2)c1 [Compound 8, N-(4-(4-methoxyphenoxy)-3-(1-methyl-5-(methylamino)-6-oxo-1,6-dihydropyridin-3-yl)phenyl)ethenesulfonamide]	17
C=CS(=O)(=O)Nc1ccc(Oc2ccc(F)cc2F)c(-c2cn(C)c(=O)c3c2CCNC3)c1 [Compound 14, N-(4-(2,4-difluorophenoxy)-3-(2-methyl-1-oxo-1,2,5,6,7,8-hexahydro-2,7-naphthyridin-4-yl)phenyl)ethenesulfonamide]	> 10000
C=CS(=O)(=O)N(C)c1ccc(Oc2ccc(F)cc2F)c(-c2cc(NC)c(=O)n(C)c2)c1 [Compound 15, N-(4-(2,4-difluorophenoxy)-3-(1-methyl-5-(methylamino)-6-oxo-1,6-dihydropyridin-3-yl)phenyl)-N-methylethenesulfonamide]	34
C=CS(=O)(=O)Nc1ccc(Oc2ccc(F)cc2F)c(-c2c[nH]c(=O)c3ccccc23)c1 [Compound 18, N-(4-(2,4-difluorophenoxy)-3-(1-oxo-1,2-dihydroisoquinolin-4-yl)phenyl)ethenesulfonamide]	> 10000
C=CC(=O)Nc1ccc(Nc2ccc(C)cc2)c(-c2cn(C)c(=O)c3ccccc23)c1 [Compound 309, N-(3-(2-methyl-1-oxo-1,2-dihydroisoquinolin-4-yl)-4-(p-tolylamino)phenyl) acrylamide]	2120

Other lines, results leading:

IC50 [nM]	Structure (SMILES)
758	Cc1cccc(C)c1Oc1ccc(NC(=O)/C=C/CN(C)C)cc1-c1cn(C)c(=O)c2ccccc12 [Compound 410, (E)-4-(dimethylamino)-N-(4-(2,6-dimethylphenoxy)-3-(2-methyl-1-oxo-1,2-dihydroisoquinolin-4-yl)phenyl)but-2-enamide]
281	C=CC(=O)Nc1ccc(Oc2ccc(F)cc2)c(-c2cn(C)c(=O)c3ccccc23)c1 [Compound 26, N-(4-(4-fluorophenoxy)-3-(2-methyl-1-oxo-1,2-dihydroisoquinolin-4-yl)phenyl)acrylamide]
3850	C=CS(=O)(=O)Nc1ccc(Oc2ccc(F)cc2F)c(-c2c[nH]c(=O)c(NC)c2)c1 [Compound 22, N-(4-(2,4-difluorophenoxy)-3-(5-(methylamino)-6-oxo-1,6-dihydropyridin-3-yl)phenyl)ethenesulfonamide]
717	C=CC(=O)Nc1ccc(Oc2ccc(Cl)c(F)c2)c(-c2cn(C)c(=O)c3ccccc23)c1 [Compound 32, N-(4-(4-chloro-3-fluorophenoxy)-3-(2-methyl-1-oxo-1,2-dihydroisoquinolin-4-yl)phenyl)acrylamide]
> 10000	C=CC(=O)Nc1ccc(N(C)c2ccc(F)cc2F)c(-c2cn(C)c(=O)c3sc(C(=O)NCC)cc23)c1 [Compound 612, 4-(5-acrylamido-2-((2,4-difluorophenyl)(methyl)amino)phenyl)-N-ethyl-6-methyl-7-oxo-6,7-dihydrothieno[2,3-c]pyridine-2-carboxamide]
11	C=CS(=O)(=O)Nc1ccc(Nc2ccc(F)cc2F)c(-c2cc(NC)c(=O)n(C)c2)c1 [Compound 21, N-(4-(2,4-difluorophenylamino)-3-(1-methyl-5-(methylamino)-6-oxo-1,6-dihydropyridin-3-yl)phenyl)ethenesulfonamide]
239	C#CC(=O)Nc1ccc(Oc2ccc(F)cc2F)c(-c2cn(C)c(=O)c3ccccc23)c1 [Compound 74, N-(4-(2,4-difluorophenoxy)-3-(2-methyl-1-oxo-1,2-dihydroisoquinolin-4-yl)phenyl)propiolamide]
298	C=CC(=O)N(C)c1ccc(Oc2ccc(F)cc2F)c(-c2cn(C)c(=O)c3ccccc23)c1 [Compound 396, N-(4-(2,4-difluorophenoxy)-3-(2-methyl-1-oxo-1,2-dihydroisoquinolin-4-yl)phenyl)-N-methylacrylamide]
134	C=CC(=O)N(C)c1ccc(Oc2ccc(F)cc2F)c(-c2cc(NC)c(=O)n(C)c2)c1 [Compound 394, N-(4-(2,4-difluorophenoxy)-3-(1-methyl-5-(methylamino)-6-oxo-1,6-dihydropyridin-3-yl)phenyl)-N-methylacrylamide]
> 10000	C=CC(=O)Nc1cccc(Oc2ccc(F)cc2)c1-c1cc(NC)c(=O)n(C)c1 [Compound 23, N-(3-(4-fluorophenoxy)-2-(1-methyl-5-(methylamino)-6-oxo-1,6-dihydropyridin-3-yl)phenyl)acrylamide]
3250	C=CC(=O)Nc1ccc(OC(F)(F)F)c(-c2cn(C)c(=O)c3ccccc23)c1 [Compound 27, N-(3-(2-methyl-1-oxo-1,2-dihydroisoquinolin-4-yl)-4-(trifluoromethoxy)phenyl)acrylamide]
264	C=CC(=O)Nc1ccc(Oc2ccc(C)cc2)c(-c2cn(C)c(=O)c3ccccc23)c1 [Compound 25, N-(3-(2-methyl-1-oxo-1,2-dihydroisoquinolin-4-yl)-4-(p-tolyloxy)phenyl)acrylamide]
1800	C=CC(=O)Nc1ccc(Nc2c(F)cccc2F)c(-c2cn(C)c(=O)c3ccccc23)c1 [Compound 319, N-(4-(2,6-difluorophenylamino)-3-(2-methyl-1-oxo-1,2-dihydroisoquinolin-4-yl)phenyl)acrylamide]
1830	C=CC(=O)Nc1ccc(Oc2ccc(F)cc2F)c(-c2cn(C)c(=O)c3c2OCC(=O)N3)c1 [Compound 404, N-(4-(2,4-difluorophenoxy)-3-(6-methyl-3,5-dioxo-3,4,5,6-tetrahydro-2H-pyrido[4,3-b][1,4]oxazin-8-yl)phenyl)acrylamide]
> 10000	C=CC(=O)n1cc(-c2cc(NS(=O)(=O)CC)ccc2Oc2ccc(F)cc2F)c2ccccc2c1=O [Compound 662, N-(3-(2-acryloyl-1-oxo-1,2-dihydroisoquinolin-4-yl)-4-(2,4-difluorophenoxy)phenyl)ethanesulfonamide]
17900	C=CC(=O)Nc1ccc(Oc2ccc(F)cc2)c(-c2cn(C(C)C)c(=O)c3ccccc23)c1 [Compound 28, N-(4-(4-fluorophenoxy)-3-(2-isopropyl-1-oxo-1,2-dihydroisoquinolin-4-yl)phenyl)acrylamide]
261	CC#CC(=O)Nc1ccc(Oc2ccc(F)cc2F)c(-c2cn(C)c(=O)c3ccccc23)c1 [Compound 393, N-(4-(2,4-difluorophenoxy)-3-(2-methyl-1-oxo-1,2-dihydroisoquinolin-4-yl)phenyl)but-2-ynamide]
206	C=CC(=O)Nc1ccc(Oc2ccc(F)cc2F)c(-c2nn(C)c(=O)cc2OC)c1 [Compound 403, N-(4-(2,4-difluorophenoxy)-3-(4-methoxy-1-methyl-6-oxo-1,6-dihydropyridazin-3-yl)phenyl)acrylamide]
3860	C=CS(=O)(=O)Nc1ccc(OC)c(-c2cc(NC)c(=O)n(C)c2)c1 [Compound 20, N-(4-methoxy-3-(1-methyl-5-(methylamino)-6-oxo-1,6-dihydropyridin-3-yl)phenyl)ethenesulfonamide]
